Data published in BindingDB's records for doi:10.1021/jm00075a026 (Solvay Duphar, 1994).

Biological target: T1, Glycine receptor subunit alpha-4 (Mus musculus, UniProt Q61603)
T1 sequence (Q61603 whole entry): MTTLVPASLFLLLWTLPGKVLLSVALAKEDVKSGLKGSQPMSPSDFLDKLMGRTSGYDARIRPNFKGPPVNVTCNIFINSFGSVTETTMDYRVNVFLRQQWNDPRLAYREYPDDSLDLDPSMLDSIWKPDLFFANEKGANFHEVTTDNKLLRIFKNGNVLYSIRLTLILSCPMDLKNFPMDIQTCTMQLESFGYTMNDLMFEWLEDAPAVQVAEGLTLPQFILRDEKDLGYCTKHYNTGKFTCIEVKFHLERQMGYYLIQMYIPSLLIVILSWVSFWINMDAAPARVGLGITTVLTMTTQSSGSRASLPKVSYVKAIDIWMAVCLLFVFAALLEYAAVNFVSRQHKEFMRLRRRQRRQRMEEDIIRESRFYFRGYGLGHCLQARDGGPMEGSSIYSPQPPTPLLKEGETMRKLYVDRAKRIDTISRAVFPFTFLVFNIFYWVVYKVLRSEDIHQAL
Assay: ChEBML_219281
Method: The binding affinity was measured on glycine receptor using [3H]- strychnine as radioligand.

SMILES: Cc1nccn1CC1CCc2c(c3ccccc3n2C)C1=O (stereo unspecified) [NSC_68647]
- Ki: > 10 µM
